How the values were obtained:
[1] = tested on: Caenorhabditis elegans N2; experiment: food intake (delta OD600 day1-day4, bacterial clearance) (OD600 units); higher = more food eaten; conditions: genotype: wt, 72 h
Caenorhabditis elegans = experiment: as above; conditions: 72 h
Description: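 C. elegans N2 or ser-5(vq1) knockout adults in 96-well plates treated with olanzapine, quetiapine, ziprasidone or serotonin over a dose range. Food intake was measured as bacterial clearance, delta OD600 from day 1 to day 4 per well (14-21 replicate wells of 5-15 animals).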

CN1CC2c3ccccc3Oc3ccc(Cl)cc3C2C1 (stereo not drawn) [Asenapine]
[1]
Conditions	food intake
0.01 µM	0.00861
0.03 µM	0.0107
0.1 µM	0.0122
0.3 µM	0.0127
1 µM	0.0127
3 µM	0.0112

CN(C)CCCN1c2ccccc2Sc2ccc(Cl)cc21 [Chlorpromazine]
[1]
Conditions	food intake
0.05 µM	0.0145
0.1 µM	0.0149
0.2 µM	0.0171
0.5 µM	0.0191
0.75 µM	0.0204
1 µM	0.0201
2 µM	0.0233
5 µM	0.0214

CN(C)CC/C=C1/c2ccccc2Sc2ccc(Cl)cc21 [Chlorprothixene]
[1]
Conditions	food intake
0.4 µM	0.0203
2 µM	0.0255
10 µM	0.0194

CN1CCN(C2=Nc3ccccc3Oc3ccc(Cl)cc32)CC1 [Loxapine]
[1]
Conditions	food intake
0.05 µM	0.0139
0.5 µM	0.0143
5 µM	0.0196
10 µM	0.0212
20 µM	0.0217
50 µM	0.0234
100 µM	0.023
200 µM	0.0195

Cc1cc2c(s1)Nc1ccccc1N=C2N1CCN(C)CC1 [Olanzapine]
[1]
Conditions	food intake
0.05 µM	0.0155
0.5 µM	0.0153
5 µM	0.0152
10 µM	0.0159
20 µM	0.015
50 µM	0.0149
100 µM	0.0184
200 µM	0.0186

food intake, Caenorhabditis elegans
Conditions	0.5 µM	5 µM	20 µM	50 µM	100 µM	200 µM
genotype: ser-5(vq1)	0.0069	0.00729	0.0081	0.00845	0.00859	0.00839
genotype: wt	0.00731	0.00919	0.0102	0.0117	0.0138	0.0148

OCCOCCN1CCN(C2=Nc3ccccc3Sc3ccccc32)CC1 [Quetiapine]
[1]
Conditions	food intake
0.1 µM	0.00598
3 µM	0.00727
10 µM	0.00847
30 µM	0.0103
100 µM	0.0115
200 µM	0.0118

food intake, Caenorhabditis elegans
Conditions	0.1 µM	3 µM	10 µM	30 µM	100 µM	200 µM
genotype: ser-5(vq1)	0.00593	0.00574	0.00662	0.00674	0.00602	0.0055
genotype: wt	0.00754	0.00775	0.00993	0.0118	0.0127	0.0103

NCCc1c[nH]c2ccc(O)cc12 [Serotonin]
food intake, Caenorhabditis elegans
Conditions	100 µM	500 µM	1000 µM	2000 µM	5000 µM	10000 µM
genotype: ser-5(vq1)	0.00664	0.00869	0.0118	0.0155	0.0182	0.0182
genotype: wt	0.00773	0.00951	0.0142	0.0176	0.0199	0.0189

O=C1Cc2cc(CCN3CCN(c4nsc5ccccc45)CC3)c(Cl)cc2N1 [Ziprasidone]
[1]
Conditions	food intake
0.01 µM	0.00881
0.03 µM	0.0107
0.1 µM	0.0128
0.3 µM	0.0136
1 µM	0.0136
3 µM	0.0138

food intake, Caenorhabditis elegans
Conditions	0.01 µM	0.03 µM	0.1 µM	0.3 µM	1 µM	3 µM
genotype: ser-5(vq1)	0.00508	0.00569	0.00662	0.00664	0.00712	0.0061
genotype: wt	0.00821	0.00974	0.0135	0.0153	0.0145	0.0145
